Consider 31 compounds from patent US20220274961A1, “SUBSTITUTED FUSED BI- OR TRI- HETEROCYCLIC COMPOUNDS AS EHMT2 INHIBITORS” (priority 2016, published 2022).

The target of one test is T1, human EHMT2 913-1193 (Homo sapiens, UniProt Q96KQ7).
T1 construct: recombinant purified human EHMT2 913-1193, Viva; purchased Viva
T1 sequence (Q96KQ7 913-1193): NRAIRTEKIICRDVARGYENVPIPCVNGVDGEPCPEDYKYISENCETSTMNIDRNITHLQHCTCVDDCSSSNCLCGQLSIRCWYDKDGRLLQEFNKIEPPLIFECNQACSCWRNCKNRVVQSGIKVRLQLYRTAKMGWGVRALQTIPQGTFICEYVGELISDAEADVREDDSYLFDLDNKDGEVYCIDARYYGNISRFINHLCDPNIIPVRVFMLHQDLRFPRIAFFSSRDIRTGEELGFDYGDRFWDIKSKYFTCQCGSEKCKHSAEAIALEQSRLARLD
Kind of test: biochemical. The source says:
Biotinylated histone peptides were synthesized by Biopeptide and HPLC-purified to >95% purity. Streptavidin Flashplates and seals were purchased from PerkinElmer and 384 Well V-bottom Polypropylene Plates were from Greiner. ^3H-labeled S-adenosylmethionine (^3H-SAM) was obtained from American Radiolabeled Chemicals with a specific activity of 80 Ci/mmol. Unlabeled SAM and S-adenosylhomocysteine (SAH) were obtained from American Radiolabeled Chemicals and Sigma-Aldrich respectively. […] 384-well Flashplates and 96-well filter binding plates were read on a TopCount microplate reader (PerkinElmer). Compound serial dilutions were performed on a Freedom EVO (Tecan) and spotted into assay plates using a Thermo Scientific Matrix PlateMate (Thermo Scientific). Reagent cocktails were added by Multidrop Combi (Thermo Scientific).
General Procedure for EHMT2 Enzyme Assay on Histone Peptide Substrate. 10-point curves of test compounds were made on a Freedom EVO (Tecan) using serial 3-fold dilutions in DMSO, beginning at 2.5 mM (final top concentration of compound was 50 μM and the DMSO was 2%). A 1 μL aliquot of the inhibitor dilution series was spotted in a polypropylene 384-well V-bottom plate (Greiner) using a Thermo Scientific Matrix PlateMate (Thermo Scientific). […] Reactions were incubated for 60 minutes at room temperature and quenched with 10 μL per well of 400 μM unlabeled SAM, then transferred to a 384-well streptavidin Flashplate (PerkinElmer) and washed in a Biotek ELx-405 well washer with 0.1% Tween after 60 minutes. 384-well Flashplates were read on a TopCount microplate reader (PerkinElmer).

In another test the target is T2, EHMT1 (Homo sapiens, UniProt Q9H9B1).
T2 sequence (Q9H9B1 1-1298): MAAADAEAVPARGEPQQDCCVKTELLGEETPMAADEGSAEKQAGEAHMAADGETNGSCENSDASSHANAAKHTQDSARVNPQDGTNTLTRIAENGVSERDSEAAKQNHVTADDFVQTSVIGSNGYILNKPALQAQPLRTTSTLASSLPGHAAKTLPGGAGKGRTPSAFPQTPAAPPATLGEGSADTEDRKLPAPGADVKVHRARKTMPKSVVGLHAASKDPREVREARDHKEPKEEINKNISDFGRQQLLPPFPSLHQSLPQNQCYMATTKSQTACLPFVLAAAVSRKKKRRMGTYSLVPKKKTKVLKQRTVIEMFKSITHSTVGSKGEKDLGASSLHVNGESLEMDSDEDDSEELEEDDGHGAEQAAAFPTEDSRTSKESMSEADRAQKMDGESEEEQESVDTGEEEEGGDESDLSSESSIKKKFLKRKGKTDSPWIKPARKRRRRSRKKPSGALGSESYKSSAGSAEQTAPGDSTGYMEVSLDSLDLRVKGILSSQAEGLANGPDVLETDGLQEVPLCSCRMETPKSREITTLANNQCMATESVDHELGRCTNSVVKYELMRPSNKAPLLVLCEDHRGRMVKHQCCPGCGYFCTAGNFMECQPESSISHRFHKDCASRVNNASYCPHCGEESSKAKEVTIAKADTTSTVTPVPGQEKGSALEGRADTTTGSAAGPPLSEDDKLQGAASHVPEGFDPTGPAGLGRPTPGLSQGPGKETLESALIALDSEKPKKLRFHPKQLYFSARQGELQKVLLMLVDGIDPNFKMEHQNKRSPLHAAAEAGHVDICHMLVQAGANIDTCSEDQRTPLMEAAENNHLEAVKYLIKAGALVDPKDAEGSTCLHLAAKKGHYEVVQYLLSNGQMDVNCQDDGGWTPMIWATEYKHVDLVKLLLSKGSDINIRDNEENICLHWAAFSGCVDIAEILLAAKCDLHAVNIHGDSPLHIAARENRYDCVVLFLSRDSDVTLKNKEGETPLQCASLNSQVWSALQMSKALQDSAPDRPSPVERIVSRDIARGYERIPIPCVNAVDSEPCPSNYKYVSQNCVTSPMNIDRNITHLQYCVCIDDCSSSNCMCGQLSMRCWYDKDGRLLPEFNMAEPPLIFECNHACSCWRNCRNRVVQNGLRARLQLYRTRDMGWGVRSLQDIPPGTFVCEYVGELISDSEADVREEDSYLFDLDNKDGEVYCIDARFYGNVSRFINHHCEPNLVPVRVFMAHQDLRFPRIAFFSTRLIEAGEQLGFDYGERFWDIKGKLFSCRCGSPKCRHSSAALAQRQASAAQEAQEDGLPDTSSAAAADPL
Put plainly: EHMT1 PEP. In kind it is biochemical.

The mark [1] stands for this setting: recombinant human EHMT2 913-1193, histone H3 1-15 peptide, 3H-SAM, balanced conditions, read-out: EHMT2 PEP (IC50 μM).

Like-named read-outs stand apart in the source and are kept apart here.

In the case of `COc1cc2c(cc1OCCCN1CCC1)N=C(N)C21CCC1` [Compound 43], the half-inhibitory concentration (IC50) at human EHMT2 913-1193 (setting [1]) and on EHMT1 was less than 0.1 µM each time.
Consider `COc1cc2c(cc1OCCCN)N=C(N)C21CCC1` [Compound 69], for which the IC50 at human EHMT2 913-1193 (setting [1]) and against EHMT1 was 1 to 10 µM throughout.
`CNC1=Nc2cc(C#C[C@@H](C)N3CCCCC3)c(OC)cc2C12CCC2` [Compound 94]: the IC50 at human EHMT2 913-1193 (setting [1]) and on EHMT1 was 0.1 to 1 µM each time.
Consider `COc1cc2c(cc1OCC(O)CN1CCCC1)N=C(N)C21CCC1` (centres unmarked) [Compound 62], for which the concentration for half-maximal inhibition (IC50) at human EHMT2 913-1193 (setting [1]) and against EHMT1 was less than 0.1 µM throughout.
For `COc1cc2c(cc1OCCCN)N=C(N)C2(C)C` [Compound 47], the IC50 on human EHMT2 913-1193 (setting [1]) and at EHMT1 was 1 to 10 µM each time.
Regarding `CNC1=Nc2cc(C#CC(C)N3CC4CC4C3)c(OC)cc2C12CCC2` (centres unmarked) [Compound 89], the IC50 at human EHMT2 913-1193 (setting [1]) and at EHMT1 was less than 0.1 µM in each case.
Regarding `COc1cc2c(cc1OCCCN1CCCCC1)N=C(N)C21CCC1` [Compound 52], the figures for the IC50 on human EHMT2 913-1193 (setting [1]) and against EHMT1 were less than 0.1 µM and 0.1 to 1 µM, respectively.
In the same order, the values of `COc1cc2c(cc1OCCCN1CCCC1)ncn2C(C)C` [Compound 67] are 1 to 10 µM and greater than 10 µM.
As to `COc1cc2c(cc1OCCCN1CC[C@H](O)C1)N=C(N)C21CCC1` [Compound 50], the IC50 on human EHMT2 913-1193 (setting [1]) and on EHMT1 was less than 0.1 µM in each case.
Regarding `NC1=Nc2cc(OCCCN3CCCC3)c(-c3cccnc3)cc2C12CCC2` [Compound 137], the IC50 on human EHMT2 913-1193 (setting [1]) and against EHMT1 was greater than 10 µM each time.
Consider `CNC1=Nc2cc(C#C[C@H](C)N3CCCCC3)c(OC)cc2C12CCC2` [Compound 93], for which the IC50 on human EHMT2 913-1193 (setting [1]) and against EHMT1 was less than 0.1 µM throughout.
Consider `CNC1=Nc2cc(C#CCN3CCC(O)C3)c(OC)cc2C12CCC2` (centres unmarked) [Compound 95], for which the half-inhibitory concentration (IC50) (usually the concentration that gives 50% inhibition) is 0.1 to 1 µM on human EHMT2 913-1193 (setting [1]) and less than 0.1 µM against EHMT1.
On to `CCOc1cc2c(cc1OCCCN1CCCC1)N=C(N)C21CCC1` [Compound 59], for which the 50% inhibitory concentration (IC50) at human EHMT2 913-1193 (setting [1]) and against EHMT1 was less than 0.1 µM each time.
As to `NC1=Nc2cc(OCCCN3CCCC3)c(OCC3CCOCC3)cc2C12CCC2` [Compound 60], the IC50 at human EHMT2 913-1193 (setting [1]) and against EHMT1 was 1 to 10 µM each time.
Take `COc1cc2c(cc1OCCCN1CCOCC1)N=C(N)C21CCC1` [Compound 54]: the IC50 on human EHMT2 913-1193 (setting [1]) and at EHMT1 was 0.1 to 1 µM in each case.
For `NC1=Nc2cc(OCCCN3CCCC3)c(-c3ccccc3)cc2C12CCC2` [Compound 135], the IC50 was greater than 10 µM at human EHMT2 913-1193 (setting [1]) and 1 to 10 µM against EHMT1.
For the compound `COc1cc2c(cc1OCCCN1CCCC1)N=C(N)C21CCCC1` [Compound 56], the half-maximal inhibitory concentration (IC50) at human EHMT2 913-1193 and against EHMT1 was less than 0.1 µM throughout.
For `CNC1=Nc2cc(C#CCN3CC4CC4C3)c(OC)cc2C12CCC2` (centres unmarked) [Compound 87], the IC50 on human EHMT2 913-1193 (setting [1]) and on EHMT1 was less than 0.1 µM throughout.
Consider `CC(C)Oc1cc2c(cc1OCCCN1CCCC1)N=C(N)C21CCC1` [Compound 68], for which the IC50 at human EHMT2 913-1193 (setting [1]) and against EHMT1 was 1 to 10 µM throughout.
As to `COc1cc2c(cc1OCC(C)CN1CCCC1)N=C(N)C21CCC1` (centres unmarked) [Compound 65], the IC50 on human EHMT2 913-1193 (setting [1]) and on EHMT1 was 0.1 to 1 µM each time.
As for `COc1cc2nc[nH]c2cc1OCCCN1CCCC1` [Compound 51], the IC50 on human EHMT2 913-1193 (setting [1]) and on EHMT1 was 1 to 10 µM in each case.
Consider `COc1cc2c(cc1OCCCN(C)C)N=C(N)C21CCC1` [Compound 53], for which the IC50 at human EHMT2 913-1193 (setting [1]) and against EHMT1 was less than 0.1 µM throughout.
`COc1cc2c(cc1OCCCN1CCCC1)C1(CCC1)C(N)=N2` [Compound 66]: the IC50 at human EHMT2 913-1193 (setting [1]) and against EHMT1 was 1 to 10 µM throughout.
`CNCCCOc1cc2c(cc1OC)C(C)(C)C(N)=N2` [Compound 48]: the IC50 at human EHMT2 913-1193 (setting [1]) and at EHMT1 was 0.1 to 1 µM each time.
On to `NC1=Nc2cc(OCCCN3CCCC3)c(-c3ccncc3)cc2C12CCC2` [Compound 136], for which the figures for the IC50 at human EHMT2 913-1193 (setting [1]) and against EHMT1 were greater than 10 µM and 1 to 10 µM, respectively.
On the same counts, the results for `COc1cc2c(cc1OCCCN1CC[C@@H](O)C1)N=C(N)C21CCC1` [Compound 49] are less than 0.1 µM and less than 0.1 µM.
As for `COc1cc2c(cc1OCCCN(C)C)N=C(N)C2(C)C` [Compound 46], the IC50 on human EHMT2 913-1193 (setting [1]) and against EHMT1 was 0.1 to 1 µM in each case.
`NC1=Nc2cc(OCCCN3CCCC3)c(OCC3CCCCC3)cc2C12CCC2` [Compound 61]: the IC50 at human EHMT2 913-1193 (setting [1]) and against EHMT1 was greater than 10 µM throughout.
As for `COc1cc2c(cc1OCCCN1CCCC1)N=C(N)C21CCCCC1` [Compound 55], the 50% inhibitory concentration (IC50) at human EHMT2 913-1193 (setting [1]) and at EHMT1 was less than 0.1 µM throughout.
With `NC1=Nc2cc(OCCCN3CCCC3)c(OCc3ccccc3)cc2C12CCC2` [Compound 58], the IC50 at human EHMT2 913-1193 (setting [1]) and at EHMT1 was 1 to 10 µM each time.
In the case of `CNCCCOc1cc2c(cc1OC)C1(CCC1)C(N)=N2` [Compound 57], the concentration for half-maximal inhibition (IC50) on human EHMT2 913-1193 (setting [1]) and on EHMT1 was 1 to 10 µM in each case.
